According to PubChem BioAssay AID1963831 (Molecular Pharmacology Branch, DTP, NCI, 2024):

System: 889142-216-R-J1-PDC complex spheroid viability
Test: Anticancer human tumor 889142-216-R-J1-PDC patient-derived bladder carcinoma cell line growth inhibition [POLQ]
Conditions: for IC50: curve of first compound; for viability, T/C: stronger effect = lower value
Procedure, shortened: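 Patient-derived tumour cells were co-cultured with HUVEC and mesenchymal stem cells as multicellular spheroids at 37 °C. They were treated with POLQ inhibitors (novobiocin, ART-558, RP6685) alone or combined with other agents. Top concentrations were at or near clinical Cmax (otherwise 10 microM; SN-38 at 1 microM), decreasing in half-log steps.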

[1] = second compound 0.0316 µM, first compound 0.00316 µM
[2] = second compound 0.0316 µM, first compound 0.01 µM
[3] = second compound 0.0316 µM, first compound 0.0316 µM
[4] = second compound 0.0316 µM, first compound 0.1 µM
[5] = second compound 0.0316 µM, first compound 0.316 µM
[6] = second compound 0.0316 µM, first compound 1 µM
[7] = second compound 0.1 µM, first compound 0.00316 µM
[8] = second compound 0.1 µM, first compound 0.01 µM
[9] = second compound 0.1 µM, first compound 0.0316 µM
[10] = second compound 0.1 µM, first compound 0.1 µM
[11] = second compound 0.1 µM, first compound 0.316 µM
[12] = second compound 0.1 µM, first compound 1 µM
[13] = second compound 0.316 µM, first compound 0.00316 µM
[14] = second compound 0.316 µM, first compound 0.01 µM
[15] = second compound 0.316 µM, first compound 0.0316 µM
[16] = second compound 0.316 µM, first compound 0.1 µM
[17] = second compound 0.316 µM, first compound 0.316 µM
[18] = second compound 0.316 µM, first compound 1 µM
[19] = second compound 1 µM, first compound 0.00316 µM
[20] = second compound 1 µM, first compound 0.01 µM
[21] = second compound 1 µM, first compound 0.0316 µM
[22] = second compound 1 µM, first compound 0.1 µM
[23] = second compound 1 µM, first compound 0.316 µM
[24] = second compound 1 µM, first compound 1 µM
[25] = second compound 3.16 µM, first compound 0.00316 µM
[26] = second compound 3.16 µM, first compound 0.01 µM
[27] = second compound 3.16 µM, first compound 0.0316 µM
[28] = second compound 3.16 µM, first compound 0.1 µM
[29] = second compound 3.16 µM, first compound 0.316 µM
[30] = second compound 3.16 µM, first compound 1 µM
[31] = second compound 10 µM, first compound 0.00316 µM
[32] = second compound 10 µM, first compound 0.01 µM
[33] = second compound 10 µM, first compound 0.0316 µM
[34] = second compound 10 µM, first compound 0.1 µM
[35] = second compound 10 µM, first compound 0.316 µM
[36] = second compound 10 µM, first compound 1 µM
[37] = second compound 0.0316 µM, first compound 3.16 µM
[38] = second compound 0.0316 µM, first compound 10 µM
[39] = second compound 0.1 µM, first compound 3.16 µM
[40] = second compound 0.1 µM, first compound 10 µM
[41] = second compound 0.316 µM, first compound 3.16 µM
[42] = second compound 0.316 µM, first compound 10 µM
[43] = second compound 1 µM, first compound 3.16 µM
[44] = second compound 1 µM, first compound 10 µM
[45] = second compound 3.16 µM, first compound 3.16 µM
[46] = second compound 3.16 µM, first compound 10 µM
[47] = second compound 10 µM, first compound 3.16 µM
[48] = second compound 10 µM, first compound 10 µM
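Note: spheroids exposed to compounds for seven days.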
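Throughout, for viability, T/C: 100% = DMSO vehicle control viability.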

`COc1cccc(OCCCN)c1-c1cc(Nc2cnc(C#N)cn2)n[nH]1` + COC1C(OC(N)=O)C(O)C(Oc2ccc3c(O)c(NC(=O)c4ccc(O)c(CC=C(C)C)c4)c(=O)oc3c2C)OC1(C)C was tested, and the IC50 (second compound 0.0316 µM) was 20.4 nM, the IC50 (second compound 0.1 µM) was 19.8 nM and the IC50 (second compound 0.316 µM) was 29.8 nM. It also gave an IC50 (second compound 1 µM) of 17.5 nM, an IC50 (second compound 3.16 µM) of 26.4 nM and an IC50 (second compound 10 µM) of 20 nM. It also gave a viability, T/C [1] of 90.8%, a viability, T/C [2] of 55.7% and a viability, T/C [3] of 51.2%. It also gave a viability, T/C [4] of 33.5%, a viability, T/C [5] of 34.4% and a viability, T/C [6] of 36.2%. The viability, T/C [7] was 90%, the viability, T/C [8] was 63.5% and the viability, T/C [9] was 41.1%. It also gave a viability, T/C [10] of 31.6%, a viability, T/C [11] of 31.5% and a viability, T/C [12] of 30.9%. It also gave a viability, T/C [13] of 73.2%, a viability, T/C [14] of 66.6% and a viability, T/C [15] of 47.8%. It also gave a viability, T/C [16] of 38.8%, a viability, T/C [17] of 33.8% and a viability, T/C [18] of 31.7%. The viability, T/C [19] was 87%, the viability, T/C [20] was 57.5% and the viability, T/C [21] was 40.9%. For the same compound, the viability, T/C [22] was 36.7%, the viability, T/C [23] was 35% and the viability, T/C [24] was 30%. It also gave a viability, T/C [25] of 78.3%, a viability, T/C [26] of 61.5% and a viability, T/C [27] of 48%. For the same compound, the viability, T/C [28] was 38.2%, the viability, T/C [29] was 31.4% and the viability, T/C [30] was 28.6%. For the same compound, the viability, T/C [31] was 81.7%, the viability, T/C [32] was 58.5% and the viability, T/C [33] was 45.6%. It also gave a viability, T/C [34] of 33.8%, a viability, T/C [35] of 34.4% and a viability, T/C [36] of 30.7%.
In the case of `CCc1cc2c(N3CCc4c(cc(Cn5ccnc5)cc4-c4cn(C)nc4C(F)(F)F)C3=O)cc(C)nc2c(OC)n1` + COC1C(OC(N)=O)C(O)C(Oc2ccc3c(O)c(NC(=O)c4ccc(O)c(CC=C(C)C)c4)c(=O)oc3c2C)OC1(C)C, the IC50 (second compound 0.0316 µM) is reported as > 10000 nM, the IC50 (second compound 0.1 µM) is reported as > 10000 nM and the IC50 (second compound 0.316 µM) is reported as > 10000 nM. For the same compound, the IC50 (second compound 1 µM) was > 10000 nM, the IC50 (second compound 3.16 µM) was > 10000 nM and the IC50 (second compound 10 µM) was > 10000 nM. It also gave a viability, T/C [3] of 112%, a viability, T/C [4] of 124% and a viability, T/C [5] of 113%. It also gave a viability, T/C [6] of 97%, a viability, T/C [37] of 79.9% and a viability, T/C [38] of 68.6%. For the same compound, the viability, T/C [9] was 130%, the viability, T/C [10] was 115% and the viability, T/C [11] was 101%. It also gave a viability, T/C [12] of 101%, a viability, T/C [39] of 85.7% and a viability, T/C [40] of 58.2%. For the same compound, the viability, T/C [15] was 120%, the viability, T/C [16] was 132% and the viability, T/C [17] was 107%. For the same compound, the viability, T/C [18] was 107%, the viability, T/C [41] was 92.9% and the viability, T/C [42] was 67.7%. For the same compound, the viability, T/C [21] was 126%, the viability, T/C [22] was 123% and the viability, T/C [23] was 131%. It also gave a viability, T/C [24] of 105%, a viability, T/C [43] of 74.4% and a viability, T/C [44] of 61.9%. It also gave a viability, T/C [27] of 112%, a viability, T/C [28] of 106% and a viability, T/C [29] of 137%. The viability, T/C [30] was 98.4%, the viability, T/C [45] was 81.9% and the viability, T/C [46] was 55.1%. For the same compound, the viability, T/C [33] was 119%, the viability, T/C [34] was 102% and the viability, T/C [35] was 111%. The viability, T/C [36] was 92.2%, the viability, T/C [47] was 85.8% and the viability, T/C [48] was 62.8%.
For `C=CCn1c(=O)c2cnc(Nc3ccc(N4CCN(C)CC4)cc3)nc2n1-c1cccc(C(C)(C)O)n1` + COC1C(OC(N)=O)C(O)C(Oc2ccc3c(O)c(NC(=O)c4ccc(O)c(CC=C(C)C)c4)c(=O)oc3c2C)OC1(C)C, the IC50 (second compound 0.0316 µM) was > 1000 nM, the IC50 (second compound 0.1 µM) was > 1000 nM and the IC50 (second compound 0.316 µM) was > 1000 nM. For the same compound, the IC50 (second compound 1 µM) was > 1000 nM, the IC50 (second compound 3.16 µM) was > 1000 nM and the IC50 (second compound 10 µM) was > 1000 nM. It also gave a viability, T/C [1] of 97.1%, a viability, T/C [2] of 152% and a viability, T/C [3] of 86.6%. The viability, T/C [4] was 83.1%, the viability, T/C [5] was 66.1% and the viability, T/C [6] was 52%. The viability, T/C [7] was 98.3%, the viability, T/C [8] was 111% and the viability, T/C [9] was 108%. The viability, T/C [10] was 81.2%, the viability, T/C [11] was 60.9% and the viability, T/C [12] was 57.5%. For the same compound, the viability, T/C [13] was 100%, the viability, T/C [14] was 125% and the viability, T/C [15] was 103%. For the same compound, the viability, T/C [16] was 86.4%, the viability, T/C [17] was 63.6% and the viability, T/C [18] was 54.7%. The viability, T/C [19] was 112%, the viability, T/C [20] was 110% and the viability, T/C [21] was 113%. The viability, T/C [22] was 89.5%, the viability, T/C [23] was 68.6% and the viability, T/C [24] was 57%. It also gave a viability, T/C [25] of 90.2%, a viability, T/C [26] of 99.6% and a viability, T/C [27] of 85.4%. The viability, T/C [28] was 108%, the viability, T/C [29] was 64.5% and the viability, T/C [30] was 50.2%. For the same compound, the viability, T/C [31] was 127%, the viability, T/C [32] was 116% and the viability, T/C [33] was 97.8%. It also gave a viability, T/C [34] of 85.9%, a viability, T/C [35] of 62.5% and a viability, T/C [36] of 51.8%.
In the case of `CCCS(=O)(=O)Nc1ccc(F)c(C(=O)c2c[nH]c3ncc(-c4ccc(Cl)cc4)cc23)c1F` + Cc1cccc(N(C)C(=O)C2C(O)CCN2c2nc(C)cc(C(F)(F)F)c2C#N)c1, the IC50 (second compound 0.0316 µM) is reported as > 10000 nM, the IC50 (second compound 0.1 µM) is reported as > 10000 nM and the IC50 (second compound 0.316 µM) is reported as > 10000 nM. It also gave an IC50 (second compound 1 µM) of 9290 nM, an IC50 (second compound 3.16 µM) of 8820 nM and an IC50 (second compound 10 µM) of 6130 nM. For the same compound, the viability, T/C [3] was 100%, the viability, T/C [4] was 116% and the viability, T/C [5] was 98.7%. The viability, T/C [6] was 105%, the viability, T/C [37] was 83.5% and the viability, T/C [38] was 50.5%. For the same compound, the viability, T/C [9] was 121%, the viability, T/C [10] was 101% and the viability, T/C [11] was 91%. For the same compound, the viability, T/C [12] was 96.5%, the viability, T/C [39] was 81.3% and the viability, T/C [40] was 48.8%. The viability, T/C [15] was 110%, the viability, T/C [16] was 86.7% and the viability, T/C [17] was 93.3%. The viability, T/C [18] was 91.7%, the viability, T/C [41] was 72.1% and the viability, T/C [42] was 60.5%. The viability, T/C [21] was 94.9%, the viability, T/C [22] was 91.1% and the viability, T/C [23] was 92.7%. It also gave a viability, T/C [24] of 90.5%, a viability, T/C [43] of 66.8% and a viability, T/C [44] of 48.9%. For the same compound, the viability, T/C [27] was 101%, the viability, T/C [28] was 96% and the viability, T/C [29] was 81.1%. For the same compound, the viability, T/C [30] was 79.2%, the viability, T/C [45] was 75.2% and the viability, T/C [46] was 44.9%. It also gave a viability, T/C [33] of 65.1%, a viability, T/C [34] of 86.2% and a viability, T/C [35] of 90.1%. For the same compound, the viability, T/C [36] was 66.3%, the viability, T/C [47] was 67% and the viability, T/C [48] was 38.5%.
